The record followed here is patent US11345666B2, “Phenyl and pyridinyl substituted imidazoles as modulators of RORγT” (Janssen Pharmaceutica NV, priority 2018, dated 2022).

Usually Kd stands for a measure of binding affinity in units of concentration. What is called IC50 is the concentration at which inhibition is half-maximal.

Read-outs that look alike come from different tables or passages of the source. Marks after values point to notes of the source that are not given here.

In test [1] the target is human RORγt ligand binding domain (RORγt LBD) (Homo sapiens (Human), UniProt P51449). Kind of test: RORγt ThermoFluor assay. A digest of the protocol:
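Thermal shift of His-tagged human RORγt LBD (0.065 mg/mL) with 60 μM 1,8-ANS in 100 mM Hepes pH 7.0, 10 mM NaCl, 2.5 mM GSH, 0.002% Tween-20, heated at 1° C./min. Compounds in 1:2 series from a 10 mM DMSO stock; KD estimated from ΔTm using protein unfolding thermodynamics.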

The next test has as its target full-length human RORγt (Homo sapiens (Human), UniProt P51449). Kind of test: RORγt (full-length human) reporter assay, conditions A or B. Type of test: cell-based. The conditions noted are these: for IC50: HEK293T cells, read-out: RORγt (FL) Reporter Assay A or B, IC50; for inhibition at 2 µM: 2 μM compound concentration (**); for inhibition at 6 µM: read-out: RORγt (FL) Reporter Assay A or B, % inhibition @ 6 μM, 6 μM compound concentration. A digest of the protocol:
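HEK293T cells transiently co-transfected (PEI) with GAL4-DBD–RORγt, GAL4-firefly luciferase and CMV-Renilla reporters; condition A 35,000 cells/well, 170.5 ng DNA/well; condition B 8750 cells/well, 42.6 ng DNA/well.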
Background: In a reporter assay the amount or activity of a reporter protein is the signal.

The mark [2] stands for this setting: 3 μM compound concentration (*), read-out: RORγt (FL) Reporter Assay A or B, % inhibition.
Setting [3] is: read-out: RORγt (FL) Reporter Assay A or B, % inhibition.

Chain of human RORγt ligand binding domain (RORγt LBD) (P51449 other isoform, or with tags, fused parts or gaps): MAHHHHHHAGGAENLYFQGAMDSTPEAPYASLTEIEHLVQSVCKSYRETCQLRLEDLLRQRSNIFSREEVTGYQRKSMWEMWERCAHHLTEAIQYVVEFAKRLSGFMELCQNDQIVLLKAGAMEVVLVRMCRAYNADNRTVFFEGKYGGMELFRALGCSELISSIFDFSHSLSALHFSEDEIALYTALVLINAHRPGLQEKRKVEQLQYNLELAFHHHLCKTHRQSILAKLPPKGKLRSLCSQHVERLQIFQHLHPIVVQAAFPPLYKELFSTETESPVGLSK
Chain of full-length human RORγt (P51449 other isoform, or with tags, fused parts or gaps): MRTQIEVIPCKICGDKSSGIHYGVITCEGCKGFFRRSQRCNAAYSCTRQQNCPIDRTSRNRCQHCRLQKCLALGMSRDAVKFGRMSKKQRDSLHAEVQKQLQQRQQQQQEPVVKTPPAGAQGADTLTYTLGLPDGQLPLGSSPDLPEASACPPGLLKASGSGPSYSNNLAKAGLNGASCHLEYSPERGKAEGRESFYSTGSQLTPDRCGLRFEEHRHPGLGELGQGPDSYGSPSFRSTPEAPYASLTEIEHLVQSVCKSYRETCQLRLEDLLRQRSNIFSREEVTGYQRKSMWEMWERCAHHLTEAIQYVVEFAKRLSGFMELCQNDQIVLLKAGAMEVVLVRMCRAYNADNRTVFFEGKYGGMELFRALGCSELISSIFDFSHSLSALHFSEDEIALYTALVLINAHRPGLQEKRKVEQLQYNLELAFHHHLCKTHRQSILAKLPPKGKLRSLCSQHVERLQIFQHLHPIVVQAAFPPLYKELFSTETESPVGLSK

Regarding `CCc1nc(C(=O)NC[C@H]2CC[C@H](S(C)(=O)=O)CC2)c(Cl)n1-c1ncc(C[C@H](C)C(F)(F)F)cc1OC(F)F` (single isomer, unassigned) [Example 72, 5-Chloro-1-(3-(difluoromethoxy)-5-((S*)-3,3,3-trifluoro-2-methylpropyl)pyridin-2-yl)-2-ethyl-N-(((1r,4S)-4-(methylsulfonyl)cyclohexyl)methyl)-1H-imidazole-4-carboxamide], binding in test [1] was put at a Kd of 9.8 nM. For the same compound, at full-length human RORγt (setting [2]), the inhibition at 3 µM came to 98%. For the same compound, the 50% inhibitory concentration (IC50) on full-length human RORγt turned out to be 75 nM.

For `CCc1nc(C(=O)NC[C@]2(C#N)CC[C@@H](S(C)(=O)=O)CC2)c(C#N)n1-c1ccc(CC(C)(C)C(F)(F)F)cc1OC(F)F` [Example 37, 5-Cyano-N-(((1s*,4s*)-1-cyano-4-(methylsulfonyl)cyclohexyl)methyl)-1-(2-(difluoromethoxy)-4-(3,3,3-trifluoro-2,2-dimethylpropyl)phenyl)-2-ethyl-1H-imidazole-4-carboxamide], binding in test [1] was characterised by a dissociation constant (Kd) of 0.87 nM. Further, the “RORγt (FL) Reporter Assay A or B, % inhibition” value on full-length human RORγt (0.67 μM compound concentration (****)) was 105**** %. Further, at full-length human RORγt, the IC50 turned out to be 5.3 nM.

The compound `CCc1nc(C(=O)NC[C@]2(O)CC[C@@H](S(C)(=O)=O)CC2)c(C(N)=O)n1-c1ccc(CC(C)(C)C(F)(F)F)cc1OC(F)(F)F` [Example 112, 2-Ethyl-N^4-(((1s,4s)-1-hydroxy-4-(methylsulfonyl)cyclohexyl)methyl)-1-(4-(3,3,3-trifluoro-2,2-dimethylpropyl)-2-(trifluoromethoxy)phenyl)-1H-imidazole-4,5-dicarboxamide] registered a Kd in test [1] of 1.9 nM. Besides, at full-length human RORγt (setting [3]), the inhibition at 2 µM was found to be 89%. In addition, the IC50 on full-length human RORγt was 17 nM.

Turning to `CCc1nc(C(=O)NC[C@]2(O)CC[C@@H](S(C)(=O)=O)CC2)c(C#N)n1-c1ccc(CC(C)C(F)(F)F)cc1OC` (stereo partly drawn) [Example 1, 5-Cyano-2-ethyl-N-(((1s,4s)-1-hydroxy-4-(methylsulfonyl)cyclohexyl)methyl)-1-(2-methoxy-4-(3,3,3-trifluoro-2-methylpropyl)phenyl)-1H-imidazole-4-carboxamide], in test [1], the Kd was 4.6 nM. For the same compound, on full-length human RORγt (setting [3]), the inhibition at 2 µM worked out at 103%. On full-length human RORγt, the IC50 worked out at 40 nM.

`CCc1nc(C(=O)NC[C@H]2CC[C@H](S(C)(=O)=O)CC2)c(Cl)n1-c1c(F)cc(CC(C)C(F)(F)F)cc1F` (stereo partly drawn) [Example 85, 5-Chloro-1-(2,6-difluoro-4-(3,3,3-trifluoro-2-methylpropyl)phenyl)-2-ethyl-N-(((1r,4r)-4-(methylsulfonyl)cyclohexyl)methyl)-1H-imidazole-4-carboxamide] registered a Kd in test [1] of 8.2 nM. At full-length human RORγt (0.22 μM compound concentration (******), read-out: RORγt (FL) Reporter Assay A or B, % inhibition), the inhibition at 0.22 µM amounted to 63%. For the same compound, the half-inhibitory concentration (IC50) at full-length human RORγt came out at 23 nM.

Regarding `CCc1nc(C(=O)NC[C@@H]2CC[C@@H](S(C)(=O)=O)C[C@H]2O)c(Cl)n1-c1ncc(CC(C)(C)C(F)(F)F)cc1OC(F)F` (single isomer, unassigned) [Example 59, 5-Chloro-1-(3-(difluoromethoxy)-5-(3,3,3-trifluoro-2,2-dimethylpropyl)pyridin-2-yl)-2-ethyl-N-(((1S*,2R*,4R*)-2-hydroxy-4-(methylsulfonyl)cyclohexyl)methyl)-1H-imidazole-4-carboxamide], binding in test [1] was characterised by a dissociation constant (Kd) of 12 nM. In addition, the IC50 at full-length human RORγt is 65 nM. The inhibition at 3 µM on full-length human RORγt (read-out: RORγt (FL) Reporter Assay A or B, % inhibition, 3 μM compound concentration (*)) came to 104%.

As to `CCc1nc(C(=O)NC[C@]2(O)CC[C@@H](S(C)(=O)=O)CC2)c(C#N)n1-c1ncc(CCC(F)(F)F)cc1OC` [Example 120, 5-Cyano-2-ethyl-N-(((1s,4s)-1-hydroxy-4-(methylsulfonyl)cyclohexyl)methyl)-1-(3-methoxy-5-(3,3,3-trifluoropropyl)pyridin-2-yl)-1H-imidazole-4-carboxamide], binding in test [1] was put at a Kd of 830 nM. On full-length human RORγt, the IC50 came to 1400 nM and the inhibition at 6 µM was 57%.

In the case of `CCc1nc(C(=O)NC[C@]2(O)CC[C@@H](S(C)(=O)=O)CC2)cn1-c1ccc(C[C@@H](C)C(F)(F)F)cc1OC` (single isomer, unassigned) [Example 17, 2-Ethyl-N-(((1s,4S)-1-hydroxy-4-(methylsulfonyl)cyclohexyl)methyl)-1-(2-methoxy-4-((R*)-3,3,3-trifluoro-2-methylpropyl)phenyl)-1H-imidazole-4-carboxamide], the Kd in test [1] was 75 nM. Moreover, the inhibition at 2 µM at full-length human RORγt (setting [3]) was 74%. Moreover, the IC50 on full-length human RORγt is 400 nM.

In the case of `CCc1nc(C(=O)NC[C@]2(O)CC[C@@H](S(C)(=O)=O)CC2)c(Cl)n1-c1ncc(CC(C)(C)C(F)(F)F)cc1OC(F)F` [Example 46, 5-Chloro-1-(3-(difluoromethoxy)-5-(3,3,3-trifluoro-2,2-dimethylpropyl)pyridin-2-yl)-2-ethyl-N-(((1s,4s)-1-hydroxy-4-(methylsulfonyl)cyclohexyl)methyl)-1H-imidazole-4-carboxamide], binding in test [1] was characterised by a dissociation constant (Kd) of 3.1 nM. Moreover, on full-length human RORγt, the IC50 worked out at 28 nM and the inhibition at 6 µM is 97%.

In the case of `C#Cc1c(C(=O)NC[C@H]2CC[C@H](S(C)(=O)=O)CC2)nc(CC)n1-c1ccc(CC(C)(C)C(F)(F)F)cc1OC(F)F` [Example 41, 1-(2-(Difluoromethoxy)-4-(3,3,3-trifluoro-2,2-dimethylpropyl)phenyl)-2-ethyl-5-ethynyl-N-(((1r,4r)-4-(methylsulfonyl)cyclohexyl)methyl)-1H-imidazole-4-carboxamide], the affinity in test [1], expressed as Kd, was 0.19 nM. Moreover, at full-length human RORγt (0.67 μM compound concentration (****), read-out: RORγt (FL) Reporter Assay A or B, % inhibition), the inhibition at 0.67 µM worked out at 106%. Also, the 50% inhibitory concentration (IC50) at full-length human RORγt came out at 2.7 nM.

Take `Cc1nc(C(=O)NC[C@]2(O)CC[C@@H](S(C)(=O)=O)CC2)cn1-c1ccc(CC(C)(C)C(F)(F)F)cc1OC(F)F` [Example 132, 1-(2-(Difluoromethoxy)-4-(3,3,3-trifluoro-2,2-dimethylpropyl)phenyl)-N-(((1s,4s)-1-hydroxy-4-(methylsulfonyl)cyclohexyl)methyl)-2-methyl-1H-imidazole-4-carboxamide]: binding in test [1] was put at a Kd of 340 nM. The inhibition at 3 µM on full-length human RORγt (setting [2]) amounted to 87%. Besides, the half-inhibitory concentration (IC50) at full-length human RORγt is 800 nM.

In turn, `CCc1nc(C(=O)NC[C@H]2CC[C@H](S(C)(=O)=O)CC2)c(Cl)n1-c1c(F)cc(C[C@@H](C)C(F)(F)F)cc1F` (single isomer, unassigned) [Example 87, 5-Chloro-1-(2,6-difluoro-4-((R*)-3,3,3-trifluoro-2-methylpropyl)phenyl)-2-ethyl-N-(((1r,4R)-4-(methylsulfonyl)cyclohexyl)methyl)-1H-imidazole-4-carboxamide] displayed a Kd in test [1] of 3.8 nM. Further, the concentration for half-maximal inhibition (IC50) on full-length human RORγt amounted to 18 nM. The inhibition at 0.67 µM on full-length human RORγt (read-out: RORγt (FL) Reporter Assay A or B, % inhibition, 0.67 μM compound concentration (****)) is 66%.

`CCc1nc(C(=O)NC[C@]2(O)CC[C@@H](S(C)(=O)=O)CC2)c(C#N)n1-c1ncc(CC(C)(C)C(F)(F)F)cc1OC` [Example 123, 5-Cyano-2-ethyl-N-(((1s,4s)-1-hydroxy-4-(methylsulfonyl)cyclohexyl)methyl)-1-(3-methoxy-5-(3,3,3-trifluoro-2,2-dimethylpropyl)pyridin-2-yl)-1H-imidazole-4-carboxamide]: binding in test [1] was characterised by a dissociation constant (Kd) of 31 nM. Moreover, at full-length human RORγt, the IC50 was 240 nM and the inhibition at 6 µM came to 102%.

For `CCc1nc(C(=O)NC[C@]2(O)CC[C@@H](S(C)(=O)=O)CC2)c(Cl)n1-c1ncc(CC(C(F)(F)F)C(F)(F)F)cc1OC(F)F` [Example 62, 5-Chloro-1-(3-(difluoromethoxy)-5-(3,3,3-trifluoro-2-(trifluoromethyl)propyl)pyridin-2-yl)-2-ethyl-N-(((1s,4s)-1-hydroxy-4-(methylsulfonyl)cyclohexyl)methyl)-1H-imidazole-4-carboxamide], in test [1], the Kd was determined as 19 nM. Besides, on full-length human RORγt (setting [2]), the inhibition at 3 µM is 100%. Moreover, the half-maximal inhibitory concentration (IC50) at full-length human RORγt is 89 nM.

Regarding `CCc1nc(C(=O)NC[C@H]2CC[C@H](S(C)(=O)=O)CC2)c(C)n1-c1ncc(CCCC(F)(F)F)cc1OC(F)F` [Example 51, 1-(3-(Difluoromethoxy)-5-(4,4,4-trifluorobutyl)pyridin-2-yl)-2-ethyl-5-methyl-N-(((1r,4r)-4-(methylsulfonyl)cyclohexyl)methyl)-1H-imidazole-4-carboxamide], in test [1], the Kd turned out to be 120 nM. At full-length human RORγt, the concentration for half-maximal inhibition (IC50) worked out at 140 nM and the inhibition at 6 µM was found to be 84%.

In test [1], `[2H]C([2H])([2H])Oc1cc(CC(C)(C)C(F)(F)F)ccc1-n1c(CC)nc(C(=O)NC[C@]2(O)CC[C@@H](S(C)(=O)=O)CC2)c1C#N` [Example 28, 5-Cyano-2-ethyl-N-(((1s,4s)-1-hydroxy-4-(methylsulfonyl)cyclohexyl)methyl)-1-(2-(methoxy-d3)-4-(3,3,3-trifluoro-2,2-dimethylpropyl)phenyl)-1H-imidazole-4-carboxamide] yielded a Kd of 2.5 nM. For the same compound, the inhibition at 2 µM at full-length human RORγt (setting [3]) was 102%. On full-length human RORγt, the IC50 was determined as 33 nM.

In the case of `CCc1nc(C(=O)NC[C@H]2CC[C@H](S(C)(=O)=O)CC2)c(C)n1-c1ncc(CC(C)(C)C(F)(F)F)cc1OC(F)F` [Example 49, 1-(3-(Difluoromethoxy)-5-(3,3,3-trifluoro-2,2-dimethylpropyl)pyridin-2-yl)-2-ethyl-5-methyl-N-(((1r,4r)-4-(methylsulfonyl)cyclohexyl)methyl)-1H-imidazole-4-carboxamide], the affinity in test [1], expressed as Kd, was 5.8 nM. Besides, at full-length human RORγt, the IC50 worked out at 14 nM and the inhibition at 6 µM turned out to be 94%.
